From US11208399B2, “NLRP3 inflammasome inhibitors” (Novartis AG, priority 2019, dated 2021)

Experiments:
[1] = tested on: NF-kB-dependent TNF-α secretion; assay: TNF-α secretion assay in THP-1 cells (counter screen, HTRF); type: cell-based; settings: Homo sapiens, Pam3CSK4-stimulated, 3 hours
Method: Monocytic THP-1 cells were maintained according to providers' instructions in RPMI media as described above. […] Experimental compounds were prepared and added as described above. TNF-α secretion was triggered by the addition of either 1 μg/mL LPS (Sigma, #L4391) or 100 ng/mL Pam3CSK4 (Invivogen, #tlrl-pms) depending on the experiment, and cells were incubated for 3 hours. 10 μL supernatant was removed, and TNF-α levels were monitored using an HTRF assay (CisBio, #62TNFPEC) according to manufacturers' instructions. Viability was monitored as described above.
IC50 values were calculated from the plot of percentage of inhibition versus the inhibitor concentration by a logistics fit according to: y=A2+(A1−A2)/(1+(x/IC50)^p) where y is the %-inhibition at the inhibitor concentration, x. A1 is the lowest inhibition value, i.e. 0%, and A2 the maximum inhibition value, i.e. 100%. The exponent, p, is the Hill coefficient. The curve fitting was conducted with an internally developed software suite. […]

NLRP3 inflammasome = assay: IL-1β secretion assay in PMA-differentiated THP-1 cells, nigericin-activated (HTRF); type: cell-based; settings: Homo sapiens, 15 μM nigericin, 3 hours, read-out: IL-1β IC50
Method: 10 μL supernatant was removed, and IL-1p levels were monitored using an HTRF assay (CisBio, #621L1PEC) according to manufacturers' instructions. Viability and pyroptosis was monitored with the addition of PrestoBlue cell viability reagent (Life Technologies, #A13261) directly to the cell culture plate.
IC50 values were calculated from the plot of percentage of inhibition versus the inhibitor concentration by a logistics fit according to: y=A2+(A1−A2)/(1+(x/IC50)^p) where y is the %-inhibition at the inhibitor concentration, x. A1 is the lowest inhibition value, i.e. 0%, and A2 the maximum inhibition value, i.e. 100%. The exponent, p, is the Hill coefficient. The curve fitting was conducted with an internally developed software suite.
NLRP3-dependent IL-1β secretion was stimulated in PMA-differentiated THP-1 cells by the addition of nigericin, and cytokines were measured in the […] after 3 hours. As discussed above, activation of the NLRP3 inflammasome requires both an NF-kB-dependent priming step and the addition of a NLRP3 activator.

SMILES | IC50 [1] [nM] | IC50 (NLRP3 inflammasome) [nM]
Cc1cc(C(F)(F)F)cc(O)c1-c1ccc(NCC2COCCN2C)nn1 (racemic) [Ex 77, (rac)-3-Methyl-2-(6-(((4-methylmorpholin-3-yl)methyl)amino)pyridazin-3-yl)-5-(trifluoromethyl)phenol] | > 100000 | 61.9
Cc1cc(C(F)(F)F)cc(O)c1-c1ccc(N[C@@H]2CCC[C@H]2O)nn1 (relative stereo) [Ex 24, (trans)-2-(6-((2-Hydroxycyclopentyl)amino)pyridazin-3-yl)-3-methyl-5-(trifluoromethyl)phenol] | 37000 | 120
Cc1cc(C(F)(F)F)cc(O)c1-c1ccc(N[C@H]2C[C@@](C)(O)C2)nn1 [Ex 2, 2-(6-(((cis)-3-Hydroxy-3-methylcyclobutyl)amino)pyridazin-3-yl)-3-methyl-5-(trifluoromethyl)phenol] | > 100000 | 10.2
Cc1cc(C(F)(F)F)cc(O)c1-c1ccc(N[C@@H]2CCC[C@H](O)C2)nn1 [Ex 3, 2-(6-(((1R,3S)-3-Hydroxycyclohexyl)amino)pyridazin-3-yl)-3-methyl-5-(trifluoromethyl)phenol] | > 100000 | 25.5
CCN1CCC[C@H]1CNc1ccc(-c2c(C)cc(C(F)(F)F)cc2O)nn1 [Ex 8, (S)-2-(6-(((1-Ethylpyrrolidin-2-yl)methyl)amino)pyridazin-3-yl)-3-methyl-5-(trifluoromethyl)phenol] | > 100000 | 24.1
Cc1cc(C(F)(F)F)cc(O)c1-c1ccc(NCC(O)(C(F)(F)F)C(F)(F)F)nn1 [Ex 10, 3-Methyl-2-(6-((3,3,3-trifluoro-2-hydroxy-2-(trifluoromethyl)propyl)amino)pyridazin-3-yl)-5-(trifluoromethyl)phenol] | > 33000 | 349
Cc1cc(C(F)(F)F)cc(O)c1-c1ccc(NC[C@H]2CCCN2)nn1 [Ex 14, (R)-3-Methyl-2-(6-((pyrrolidin-2-ylmethyl)amino)pyridazin-3-yl)-5-(trifluoromethyl)phenol] | > 100000 | 85.7
Cc1cc(C(F)(F)F)cc(O)c1-c1ccc(NCC(C)(C)O)nn1 [Ex 15, 2-(6-((2-Hydroxy-2-methylpropyl)amino)pyridazin-3-yl)-3-methyl-5-(trifluoromethyl)phenol] | > 100000 | 85.9
Cc1cc(C(F)(F)F)cc(O)c1-c1ccc(NCC(C)(C)N(C)C)nn1 [Ex 16, 2-(6-((2-(Dimethylamino)-2-methylpropyl)amino)pyridazin-3-yl)-3-methyl-5-(trifluoromethyl)phenol] | > 100000 | 36.3
Cc1cc(C(F)(F)F)cc(O)c1-c1ccc(OCC(C)(C)O)nn1 [Ex 19, 2-(6-(2-Hydroxy-2-methylpropoxy)pyridazin-3-yl)-3-methyl-5-(trifluoromethyl)phenol] | > 100000 | 93.6
Cc1cc(C(F)(F)F)cc(O)c1-c1ccc(NC[C@H]2CCCCN2)nn1 [Ex 20, (R)-3-Methyl-2-(6-((piperidin-2-ylmethyl)amino)pyridazin-3-yl)-5-(trifluoromethyl)phenol] | > 100000 | 82.3
Cc1cc(C(F)(F)F)cc(O)c1-c1ccc(NC[C@@H]2CCCCN2)nn1 [Ex 21, (S)-3-Methyl-2-(6-((piperidin-2-ylmethyl)amino)pyridazin-3-yl)-5-(trifluoromethyl)phenol] | > 100000 | 48.4
Cc1cc(C(F)(F)F)cc(O)c1-c1ccc(NC[C@@H]2CC(F)(F)CN2)nn1 [Ex 22, (S)-2-(6-(((4,4-Difluoropyrrolidin-2-yl)methyl)amino)pyridazin-3-yl)-3-methyl-5-(trifluoromethyl)phenol] | > 100000 | 80.7
Cc1cc(C(F)(F)F)cc(O)c1-c1ccc(NC[C@H]2CC(F)(F)CN2)nn1 [Ex 23, (R)-2-(6-(((4,4-Difluoropyrrolidin-2-yl)methyl)amino)pyridazin-3-yl)-3-methyl-5-(trifluoromethyl)phenol] | > 100000 | 93.4
Cc1cc(C(F)(F)F)cc(O)c1-c1cc(C(F)(F)F)c(NCCO)nn1 [Ex 26, 2-(6-((2-Hydroxyethyl)amino)-5-(trifluoromethyl)pyridazin-3-yl)-3-methyl-5-(trifluoromethyl)phenol] | > 100000 | 165
Cc1cc(C(F)(F)F)cc(O)c1-c1ccc(NCc2ccccn2)nn1 [Ex 28, 3-Methyl-2-(6-((pyridin-2-ylmethyl)amino)pyridazin-3-yl)-5-(trifluoromethyl)phenol] | > 100000 | 288
Cc1cc(C(F)(F)F)cc(O)c1-c1ccc(NCC(C)(C)N)nn1 [Ex 29, 2-(6-((2-Amino-2-methylpropyl)amino)pyridazin-3-yl)-3-methyl-5-(trifluoromethyl)phenol] | > 100000 | 169
CC(C)(O)CNc1ccc(-c2c(O)cc(C(F)(F)F)cc2Cl)nn1 [Ex 30, 3-Chloro-2-(6-((2-hydroxy-2-methylpropyl)amino)pyridazin-3-yl)-5-(trifluoromethyl)phenol] | > 100000 | 214
Oc1cc(C(F)(F)F)cc(Cl)c1-c1ccc(N[C@H]2C[C@@H](O)C2)nn1 [Ex 31, 3-Chloro-2-(6-((cis-3-hydroxycyclobutyl)amino)pyridazin-3-yl)-5-(trifluoromethyl)phenol] | > 100000 | 167
Oc1cc(C(F)(F)F)cc(Cl)c1-c1ccc(N[C@H]2C[C@H](O)C2)nn1 [Ex 32, 3-Chloro-2-(6-((trans-3-hydroxycyclobutyl)amino)pyridazin-3-yl)-5-(trifluoromethyl)phenol] | 85000 | 218
Cc1cc(C(F)(F)F)cc(O)c1-c1ccc(N[C@@H]2CCCN[C@@H]2C)nn1 [Ex 91b, 3-Methyl-2-(6-(((2R,3R)-2-methylpiperidin-3-yl)amino)pyridazin-3-yl)-5-(trifluoromethyl) phenol] | > 100000 | 
Cc1cc(C(F)(F)F)cc(O)c1-c1ccc(N[C@@H]2CCCN(C[C@H](C)O)C2)nn1 [Ex 92a, 2-(6-(((R)-1-((S)-2-Hydroxypropyl)piperidin-3-yl)amino)pyridazin-3-yl)-3-methyl-5-(trifluoromethyl)phenol] | > 100000 | 
Cc1cc(C(F)(F)F)cc(O)c1-c1ccc(N[C@@H]2C[C@H](O)CN(C)C2)nn1 [Ex 97, (3S,5R)-5-((6-(2-Hydroxy-6-methyl-4-(trifluoromethyl)phenyl)pyridazin-3-yl)amino)-1-methylpiperidin-3-ol] | > 100000 | 
Cc1cc(-c2c(C)cc(C(F)(F)F)cc2O)nnc1N[C@@H]1CCCNC1 [Ex 100, (R)-3-Methyl-2-(5-methyl-6-(piperidin-3-ylamino)pyridazin-3-yl)-5-(trifluoromethyl)phenol] | > 100000 | 
CCN1CCC[C@@H](Nc2nnc(-c3c(C)cc(C(F)(F)F)cc3O)cc2C)C1 [Ex 101, (R)-2-(6-((1-Ethylpiperidin-3-yl)amino)-5-methylpyridazin-3-yl)-3-methyl-5-(trifluoromethyl)-phenol] | > 100000 | 
Cc1cc(-c2c(C)cc(C(F)(F)F)cc2O)nnc1N[C@@H]1CCCN(C)C1=O [Ex 102, (R)-3-((6-(2-Hydroxy-6-methyl-4-(trifluoromethyl)phenyl)-4-methylpyridazin-3-yl)amino)-1-methylpiperidin-2-one] |  | 49
